Results taken from patent publication US7273951B2, “Polyhydroxy phenols and their use in binding p-selectin” (Astellas Pharma Inc., priority 2003, dated 2007).

Key:
[1] = target: T1, human P-selectin (Homo sapiens, UniProt P16109); test: Competition assay with biotin-PAA-Le^a-SO3H; details: read-out: IC50, inhibition of biotin-PAA-Le^a-SO3 binding to human P-selectin
T1 construct: purchased R&D Systems Europe Ltd., Abingdon, United Kingdom
Protocol: (§1) Gallic acid (Acros, Geel, Belgium) was assayed for its ability to inhibit TM11-PO binding to human P-selectin. […] For competition studies, a 96 wells microtiter plate (high binding, flat bottom, Costar, Corning, U.S.A.) was coated overnight at 4° C. with 10 μg/ml goat anti-human IgG (Fc specific) (Sigma-Aldrich, Zwijndrecht, the Netherlands) in coating buffer (50 mM NaHCO3, pH 9.6). Subsequently, wells were washed with assay buffer and incubated for 1 hour at 37° C. with blocking buffer (3% BSA in assay buffer). After washing with assay buffer, the wells were incubated for 2 hours at 37° C. with the human P-selectin IgG-Fc chimera (R&D Systems Europe Ltd., Abingdon, United Kingdom) (0.3 μg/ml). Subsequently, wells were washed with assay buffer and incubated for 1 hour at 4° C. with the TM11-PO complex. The wells were washed six times with washing buffer (0.1% Tween 20 in assay buffer). […] (TMB)/hydrogen peroxide (H2O2) (Pierce, Rochford, U.S.A.) was added and wells were incubated at room temperature for 15 minutes. The reaction was halted by addition of 2 M H2SO4 and the absorbance was measured at 450 nm.
(§2) To be able to test gallic acid binding also to other members of the selectin family (i.e. E- and L-selectin), biotin-PAA-Le^a-SO3H (Synthesone, Munich, Germany) instead of TM11-PO was used as ligand in the competition assay. This polyacrylamide (PAA) based polymer with attached sulfo-Lewis A groups, is an established selectin ligand.
(§3) Experimentally, the same procedure was used as in example 7 however with the following differences. After washing with assay buffer, the wells were incubated for 2 hours at 37° C. with the human P-selectin IgG-Fc chimera, mouse P-selectin IgG-Fc chimera, human L-selectin IgG-Fc chimera and human E-selectin IgG-Fc chimera respectively (all from R&D Systems Europe Ltd., Abingdon, United Kingdom) (0.3 μg/ml). Subsequently the wells of the microtiter plate were incubated with biotin-PAA-Le^a-SO3H (0.33 μg/ml) for 2 hours at 37° C., instead of with the TM11-PO-complex.

[2] = test system: leukocyte-platelet conjugates rolling over femoral vein endothelium; test: In vivo rolling/tumbling of leukocyte-platelet conjugates (rosettes) over femoral vein endothelium; set-up: species or system mice
Protocol: Human blood was collected on 1:6 acid-citrate-dextrose (ACD: 93 mM trisodium citrate, 7 mM citric acid, 140 mM dextrose, pH 6.5) and 1 μM tirofiban. Human platelet rich plasma (PRP) was prepared via centrifugation at 150 g for 15 min. Murine blood was collected on 20 μg/ml hirudin and was centrifuged at 800 g for 30 sec, immediately followed by a second centrifugation at 150 g for 5 min to prepare PRP. The isolated PRP (human or murine) was then mixed with two volumes of ACD and recentrifuged at 800 g for 5 min. Subsequently, washed platelets were resuspended in HEPES-Tyrode's buffer (5 mM HEPES, 137 mM NaCl, 2.7 mM KCl, 12 mM NaHCO3, 0.36 mM NaH2PO4, 1% (w/v) glucose, pH 7.3) containing 1% (v/v) human serum albumin (HAS) at 10^6 platelets/μl. They were then incubated for 20 min at 37° C. with 5 μM calcein-AM, an acetoxymethyl ester, fluorescent once cleaved by non-specific esterases inside the cell, with no detectable effect on platelet function in our perfusion studies. The platelet suspension was then centrifuged at 700 g for 25 min and fluorescent platelets were resuspended in HEPES-Tyrode's buffer, and murine platelets were injected as such in mice.
All animal experiments were reviewed and approved by the Institutional Review Board of the University of Leuven and were performed in compliance with the guidelines of the International Society on Thrombosis and Haemostasis (Giles AR). For the study of platelet-assisted leukocyte rolling over the endothelial surface of blood vessels in vivo, on-line video microscopy was performed in mice. […] mice (6-12 weeks old) were anesthetized with Nembutal (70 mg/kg) via i.p. injection, and the jugular vein was catheterized. The femoral vein was exposed and mice were positioned on the table of an inverted epifluorescent microscope, such that the blood circulation in the femoral vein could be visualized through a Cohu CCD video camera. Fluorescent-labeled murine platelets were then injected in the catheterized jugular vein (500×10^6 platelets in 200 μl) and baseline rolling was recorded for the labeled platelets. […] After 5 min, the collagen-induced rolling and tumbling of leukocyte-platelet conjugates was then recorded for 10 min. The number of rosettes rolling were counted and their average tumbling speed was calculated from the registered movies. To address the effect of gallic acid on rosette rolling, it was infused 5 min prior to collagen administration and the rosette rolling was analysed as in the controls. […] Tumbling rosettes were counted 10 min after the collagen injection, before and after gallic acid infusion of 0.75 to 7.5 mg/kg.h. […]

[3] = test system: HL60 cells / human P-selectin expressing Chinese hamster ovary cells (CHO-P); test: Dynamic interactions between HL60 cells and CHO-P monolayers in parallel-plate perfusion chamber; format: cell-based
Protocol: Chinese hamster ovary (CHO) cells stably transfected with human P-selectin (CHO—P) were kindly donated by Dr. Modderman (University of Amsterdam, Amsterdam, the Netherlands). Cells were grown in DMEM (BioWhittaker Europe, Verviers, Belgium) containing 10% foetal calf serum (FCS) (BioWitthaker), 5 mM L-glutamine, 20,000 units penicillin/streptomycin (BioWhittaker) and 5 mM non-essential amino acids (Gibco, Paisley, United Kingdom). Flasks with cells were incubated at 37° C. in 5% CO2 for 3 or 4 days until cells had grown nearly confluent.
HL60 cells were from ATCC and grown in RPMI 1640 medium (BioWhittaker) with 10% FCS, 5 mM L-glutamine and 20,000 units penicillin/streptomycin.
Dynamic interactions between […], displaying a high expression of PSGL-1, the natural P-selectin ligand, and human P-selectin expressing Chinese hamster ovary cell (CHO—P cells) monolayers grown onto glass coverslips coated with 30 μg/ml collagen S (type I) (Roche Diagnosis, Brussels, Belgium) were analysed in a parallel-plate perfusion chamber with a method adapted from G. Theilmeier (Blood 1999, 94: 2725-2734). The coverslip constituted the bottom of the chamber and the actual chamber was formed by a 254-μm height silicon rubber gasket designed with a conically shaped flow path, thus resulting in a 3-fold increase of wall shear rate from the inlet of the chamber to the outlet. Calcein-AM labeled HL60 cells, suspended in RPMI (0.5×10^6/ml) were perfused at 37° C. and at a flow rate of 1 ml/min with an inverted syringe pump (Harvard Instruments, South Natick, Mass., U.S.A.). The flow chamber was mounted on the table platform of an inverted epifluorescence microscope (Diaphot; Nikon, Melville, N.Y., U.S.A.) coupled to a Cohu CCD video camera (COHU Inc, San Diego, Calif., U.S.A.) and HL60 cell translocation over CHO—P monolayers were measured at wall shear rates of 300 and 600 s-1. Gallic acid was added to HL60 cell suspensions 2 minutes before the onset of perfusion. To prevent oxidation, the gallic acid solution was prepared freshly. Real time movies of 12 seconds (10 images per second), recorded at predefined positions in the flow path corresponding to chosen wall shear rates were stored and digitised with a Scion LG3 frame grabber (Scion Corp, Frederick, Mich., U.S.A.). The average velocity of HL60 cells rolling over the CHO—P cells was calculated from the rolling distance of the HL60 cells in a 1 second timeframe, using the NIH Image program version 6.1. The number of adhered HL60 cells was counted from pictures taken during the same experiment.

[4] = target: T2, human L-selectin (Homo sapiens, UniProt P14151); test: Competition assay with biotin-PAA-Le^a-SO3H; format: binding
T2 construct: purchased R&D Systems Europe Ltd., Abingdon, United Kingdom
Protocol: as §1, §2, §3

[5] = target: T3, mouse P-selectin (Mus musculus, UniProt Q01102); test: Competition assay with biotin-PAA-Le^a-SO3H; format: binding; details: biotin-PAA-Le^a-SO3H ligand
T3 construct: purchased R&D Systems Europe Ltd., Abingdon, United Kingdom
Protocol: as §1, §2, §3

[6] = target: T4, human E-selectin (Homo sapiens, UniProt P16581); test: Competition assay with biotin-PAA-Le^a-SO3H; format: binding; details: concentrations up to 1 mM; biotin-PAA-Le^a-SO3H ligand
T4 construct: purchased R&D Systems Europe Ltd., Abingdon, United Kingdom
Protocol: as §1, §2, §3

[7] = target: T1, human P-selectin; test: Competition assay of gallic acid with TM11-PO; format: binding
Protocol: as §1

[8] = test system: platelets; test: TRAP-induced platelet aggregation in platelet-rich plasma; format: cell-based, human; details: for Maximal platelet aggregation: TRAP 6.5 μM, human PRP
Protocol: Freshly drawn venous blood from healthy volunteers was collected with an informed consent into 1/10 volume of 3.2% tri-sodium citrate (w/v). These donors denied to have taken aspirin or other platelet function inhibitors during the previous ten days. Platelet-rich plasma (PRP) was prepared by centrifugation (150 g, 15 min, 22° C.). PRP was adjusted to a final concentration of 200,000 platelets/μl with platelet-poor plasma (PPP), which was obtained after an additional centrifugation step of the remaining blood (1100 g, 15 min, 22° C.). PRP was left for 30 min at 37° C. to ensure a resting state of the platelets. Afterwards, PRP was incubated for 5 min with different concentrations of gallic acid, EGCG or solvent at 37° C. Samples were transferred to an aggregometer (Kordia BV, Leiden, The Netherlands) to determine platelet aggregation at a stirring speed of 900 r.p.m. Platelet aggregation was initiated after preincubation with different concentrations of GA or EGCG (0, 50, 250 and 500 μM) by the addition of thrombin receptor activating peptide (TRAP, 6.5 μM, 37° C.).

T1 sequence (P16109 with tags, fused parts or gaps limits assumed): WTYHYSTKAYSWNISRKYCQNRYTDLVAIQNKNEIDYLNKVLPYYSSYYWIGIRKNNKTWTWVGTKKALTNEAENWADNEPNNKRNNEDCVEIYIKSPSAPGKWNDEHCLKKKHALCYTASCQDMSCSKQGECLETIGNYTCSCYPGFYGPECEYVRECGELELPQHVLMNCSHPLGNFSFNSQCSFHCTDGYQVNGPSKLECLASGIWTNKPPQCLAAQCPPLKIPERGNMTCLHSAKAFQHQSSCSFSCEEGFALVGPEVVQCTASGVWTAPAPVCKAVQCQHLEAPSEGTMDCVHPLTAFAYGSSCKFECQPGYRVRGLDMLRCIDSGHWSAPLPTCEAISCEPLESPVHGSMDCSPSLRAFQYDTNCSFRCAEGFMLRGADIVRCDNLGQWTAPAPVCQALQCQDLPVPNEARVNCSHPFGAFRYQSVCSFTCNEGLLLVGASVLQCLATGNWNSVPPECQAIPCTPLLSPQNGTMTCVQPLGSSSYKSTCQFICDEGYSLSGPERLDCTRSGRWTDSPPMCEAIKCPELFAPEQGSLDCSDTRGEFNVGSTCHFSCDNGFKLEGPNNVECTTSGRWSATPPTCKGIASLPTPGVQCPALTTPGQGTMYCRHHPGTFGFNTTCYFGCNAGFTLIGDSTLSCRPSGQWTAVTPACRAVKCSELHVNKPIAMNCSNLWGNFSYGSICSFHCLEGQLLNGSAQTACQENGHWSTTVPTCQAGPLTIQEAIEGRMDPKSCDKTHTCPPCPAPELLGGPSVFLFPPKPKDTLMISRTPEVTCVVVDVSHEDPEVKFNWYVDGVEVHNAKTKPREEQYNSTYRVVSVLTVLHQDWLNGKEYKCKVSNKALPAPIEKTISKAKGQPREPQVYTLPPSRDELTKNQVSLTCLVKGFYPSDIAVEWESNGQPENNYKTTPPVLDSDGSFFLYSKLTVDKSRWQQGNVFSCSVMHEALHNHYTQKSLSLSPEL
T4 sequence (P16581 with tags, fused parts or gaps limits assumed): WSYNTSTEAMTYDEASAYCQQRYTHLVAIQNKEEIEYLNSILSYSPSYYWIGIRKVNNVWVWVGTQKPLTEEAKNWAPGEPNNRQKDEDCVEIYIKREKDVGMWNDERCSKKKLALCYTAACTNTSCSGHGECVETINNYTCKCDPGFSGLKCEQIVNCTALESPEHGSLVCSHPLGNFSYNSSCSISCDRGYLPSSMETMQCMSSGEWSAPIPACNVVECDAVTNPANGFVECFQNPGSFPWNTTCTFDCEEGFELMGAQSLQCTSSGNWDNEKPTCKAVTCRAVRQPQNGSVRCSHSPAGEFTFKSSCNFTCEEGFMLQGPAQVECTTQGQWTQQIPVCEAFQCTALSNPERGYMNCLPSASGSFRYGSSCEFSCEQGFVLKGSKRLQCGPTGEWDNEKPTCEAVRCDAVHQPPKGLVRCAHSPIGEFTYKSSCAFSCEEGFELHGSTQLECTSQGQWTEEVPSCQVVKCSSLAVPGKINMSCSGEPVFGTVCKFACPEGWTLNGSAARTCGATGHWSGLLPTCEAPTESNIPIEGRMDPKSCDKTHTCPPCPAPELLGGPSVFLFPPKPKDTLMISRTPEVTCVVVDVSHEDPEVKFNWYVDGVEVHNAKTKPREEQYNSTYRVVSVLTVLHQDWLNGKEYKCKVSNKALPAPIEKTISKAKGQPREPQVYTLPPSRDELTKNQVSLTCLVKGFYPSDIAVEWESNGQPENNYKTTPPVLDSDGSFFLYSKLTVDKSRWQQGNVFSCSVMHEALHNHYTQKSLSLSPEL
T3 sequence (Q01102 with tags, fused parts or gaps limits assumed): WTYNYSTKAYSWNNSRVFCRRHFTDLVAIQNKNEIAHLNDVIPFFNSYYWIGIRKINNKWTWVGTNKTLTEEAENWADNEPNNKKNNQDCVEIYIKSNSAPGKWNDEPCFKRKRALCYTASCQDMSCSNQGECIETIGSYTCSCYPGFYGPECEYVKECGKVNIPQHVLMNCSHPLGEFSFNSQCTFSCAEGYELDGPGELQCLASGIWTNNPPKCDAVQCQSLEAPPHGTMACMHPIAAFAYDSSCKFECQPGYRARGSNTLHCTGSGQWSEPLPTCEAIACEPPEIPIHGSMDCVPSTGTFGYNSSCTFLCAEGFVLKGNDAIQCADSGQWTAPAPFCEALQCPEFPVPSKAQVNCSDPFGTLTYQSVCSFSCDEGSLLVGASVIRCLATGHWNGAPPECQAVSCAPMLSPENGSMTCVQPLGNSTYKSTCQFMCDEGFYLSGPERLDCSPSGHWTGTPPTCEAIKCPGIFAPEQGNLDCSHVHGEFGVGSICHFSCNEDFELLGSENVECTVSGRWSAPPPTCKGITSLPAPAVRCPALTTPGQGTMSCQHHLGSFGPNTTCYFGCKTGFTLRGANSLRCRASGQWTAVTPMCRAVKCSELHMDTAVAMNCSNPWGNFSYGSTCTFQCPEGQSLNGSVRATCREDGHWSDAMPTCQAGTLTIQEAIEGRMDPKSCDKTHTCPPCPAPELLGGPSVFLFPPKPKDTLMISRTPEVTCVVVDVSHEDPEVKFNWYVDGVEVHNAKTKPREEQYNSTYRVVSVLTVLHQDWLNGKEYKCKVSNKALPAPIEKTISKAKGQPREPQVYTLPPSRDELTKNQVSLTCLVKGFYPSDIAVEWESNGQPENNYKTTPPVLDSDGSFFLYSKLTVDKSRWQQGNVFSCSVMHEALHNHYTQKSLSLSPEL
T2 sequence (P14151 with tags, fused parts or gaps limits assumed): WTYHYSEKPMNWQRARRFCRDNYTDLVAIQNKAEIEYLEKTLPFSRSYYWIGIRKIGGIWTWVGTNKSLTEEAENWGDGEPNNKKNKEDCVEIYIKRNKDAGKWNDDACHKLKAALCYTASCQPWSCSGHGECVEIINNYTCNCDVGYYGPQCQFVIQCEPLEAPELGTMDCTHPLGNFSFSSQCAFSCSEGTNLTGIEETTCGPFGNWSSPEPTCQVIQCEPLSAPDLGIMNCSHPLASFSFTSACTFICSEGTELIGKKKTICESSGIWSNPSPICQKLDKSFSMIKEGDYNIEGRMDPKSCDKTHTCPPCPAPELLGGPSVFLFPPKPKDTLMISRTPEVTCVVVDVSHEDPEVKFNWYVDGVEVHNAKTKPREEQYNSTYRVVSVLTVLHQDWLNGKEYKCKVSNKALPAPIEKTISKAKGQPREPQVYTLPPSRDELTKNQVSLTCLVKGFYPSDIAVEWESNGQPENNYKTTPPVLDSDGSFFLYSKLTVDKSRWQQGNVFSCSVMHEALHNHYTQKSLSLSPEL

With O=C(O)c1ccc(O)cc1 [4-hydroxy benzoic acid] the IC50 [1] was greater than 300 µM.
O=C(O)/C=C/c1ccc(O)c(O)c1 [caffeic acid] was tested, and the IC50 [1] was greater than 300 µM.
For O=C(O)c1cc(O)c(O)c(O)c1 [gallic acid, 3,4,5-trihydroxybenzoic acid], the IC50 [1] was roughly 85 µM, the “Conjugate rolling over femoral vein endothelium, number of conjugates rolling per unit of surface” value ([2]; C57/B16 mice (WT), FIG. 8A) was “Dose-dependent inhibition” and the “Rolling of preformed leukocyte-platelet conjugates, percentage of rolling in absence of gallic acid” value ([2]; aged atherosclerotic ApoE-/- mice, FIG. 8B) was “Inhibition”. For the same compound, the “Effective plasma concentration corresponding to ED50” value ([2]; mice, at ED50 of rosette tumbling) was 40 µM, the “ED50, dose giving half maximal inhibition of rosette tumbling” value ([2]; mice, infusion 0.75 to 7.5 mg/kg.h, counted 10 min after collagen injection) was 1.5±0.4 mg/kg.h and the “Change of HL60 cell adhesion to CHO-P monolayer vs untreated control” value ([3]; 50 μM, wall shear rate 300 s^-1) was −34%. The “Change of HL60 cell adhesion to CHO-P monolayer vs untreated control” value ([3]; 50 μM, wall shear rate 600 s^-1) was −43%, the “Change of HL60 cell adhesion to CHO-P monolayer vs untreated control” value ([3]; 250 μM, wall shear rate 300 s^-1) was −41% and the “Change of HL60 cell adhesion to CHO-P monolayer vs untreated control” value ([3]; 250 μM, wall shear rate 600 s^-1) was −54%. For the same compound, the “Rolling velocity of HL60 cells across CHO-P monolayer” value ([3]; 50 and 250 μM) was “doubled”, the IC50 [4] was 241 µM and the “Binding to P-selectin, mouse versus human” value [5] was “species-independent”. For the same compound, the “Inhibition of E-selectin binding” value [6] was “less than 20%”, the IC50 [7] was 7.2 µM and the Maximal platelet aggregation ([8]; 250 μM) was “no significant inhibition”. For the same compound, the Maximal platelet aggregation ([8]; 500 μM) was “inhibit platelet aggregation significantly”.
With CCCCCCCCCCCCOC(=O)c1cc(O)c(O)c(O)c1 [n-dodecyl gallate] the IC50 [1] was greater than 300 µM and the Platelet lysis ([8]; human platelets, not usable in aggregation test) was “causes platelet lysis”.
With (−)-epigallocatechin gallate [EGCG] the IC50 [1] was 114 µM, the Maximal platelet aggregation ([8]; 250 μM) was “no significant inhibition” and the Maximal platelet aggregation ([8]; 500 μM) was “inhibit platelet aggregation significantly”.
